One block for each compound: values may come before it.
Experiments:
[1] = molecular target: T1, Tyrosine-protein kinase receptor UFO (Homo sapiens, UniProt P30530); assay: Inhibition of AXL (unknown origin)
T1 sequence (P30530 whole entry): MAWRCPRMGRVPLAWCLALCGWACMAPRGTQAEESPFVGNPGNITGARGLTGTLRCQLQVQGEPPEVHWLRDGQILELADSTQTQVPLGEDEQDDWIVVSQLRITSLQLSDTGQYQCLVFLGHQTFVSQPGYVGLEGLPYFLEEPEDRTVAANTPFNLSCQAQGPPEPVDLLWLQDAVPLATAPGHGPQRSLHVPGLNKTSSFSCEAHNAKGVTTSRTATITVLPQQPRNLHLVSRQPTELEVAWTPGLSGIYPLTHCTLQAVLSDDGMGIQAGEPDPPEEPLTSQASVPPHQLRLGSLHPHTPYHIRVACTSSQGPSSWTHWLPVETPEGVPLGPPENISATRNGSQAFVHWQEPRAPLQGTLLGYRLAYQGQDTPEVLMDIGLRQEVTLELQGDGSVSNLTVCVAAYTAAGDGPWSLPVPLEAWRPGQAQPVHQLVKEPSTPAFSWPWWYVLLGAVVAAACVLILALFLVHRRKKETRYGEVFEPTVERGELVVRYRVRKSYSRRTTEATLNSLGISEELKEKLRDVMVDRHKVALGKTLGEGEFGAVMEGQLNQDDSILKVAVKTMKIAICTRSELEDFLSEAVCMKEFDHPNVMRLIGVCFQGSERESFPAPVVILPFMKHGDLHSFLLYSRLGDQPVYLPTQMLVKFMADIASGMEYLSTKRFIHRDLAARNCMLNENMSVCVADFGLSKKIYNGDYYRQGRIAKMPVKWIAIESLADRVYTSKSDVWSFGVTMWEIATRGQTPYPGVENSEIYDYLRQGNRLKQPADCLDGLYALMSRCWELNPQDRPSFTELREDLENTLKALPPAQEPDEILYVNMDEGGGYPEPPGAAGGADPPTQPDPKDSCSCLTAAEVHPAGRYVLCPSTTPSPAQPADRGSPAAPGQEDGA

MCF7 = assay: Antiproliferative activity against human MCF7 cells; format: functional, cell-based; conditions: Homo sapiens, MCF7
G-361 = assay: Antiproliferative activity against human G-361 cells; format: functional, cell-based; conditions: read-out: IC50
Plasmodium falciparum [2] = tested on: Plasmodium falciparum
Description: Antimalarial activity against CQ-sensitive Plasmodium falciparum NF54

[3] = molecular target: Alkaline phosphatase, germ cell type (Homo sapiens, UniProt P10696); assay: Inhibition of human germ cell alkaline phosphatase
Sequence of Alkaline phosphatase, germ cell type (P10696 whole entry): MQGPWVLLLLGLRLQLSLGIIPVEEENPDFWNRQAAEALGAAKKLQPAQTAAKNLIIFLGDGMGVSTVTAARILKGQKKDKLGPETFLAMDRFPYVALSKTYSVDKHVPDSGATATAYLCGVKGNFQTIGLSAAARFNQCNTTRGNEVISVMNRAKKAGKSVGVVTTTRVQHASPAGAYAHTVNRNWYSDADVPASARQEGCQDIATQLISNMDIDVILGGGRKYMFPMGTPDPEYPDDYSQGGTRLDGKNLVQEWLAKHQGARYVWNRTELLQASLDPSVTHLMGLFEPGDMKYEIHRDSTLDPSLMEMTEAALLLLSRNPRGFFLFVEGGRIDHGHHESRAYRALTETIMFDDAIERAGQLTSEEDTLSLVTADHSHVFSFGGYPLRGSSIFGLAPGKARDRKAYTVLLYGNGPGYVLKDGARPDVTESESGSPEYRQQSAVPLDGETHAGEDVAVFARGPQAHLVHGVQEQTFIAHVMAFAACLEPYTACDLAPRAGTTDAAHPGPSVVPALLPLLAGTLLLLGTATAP

Plasmodium berghei [4] = assay: Antimalarial activity against Plasmodium berghei ANKA infected in mouse assessed increase in survival time at 20 mg/kg/day, ip for 4 days; format: functional; conditions: time 4 day
Plasmodium berghei [5] = assay: Antiplasmodial activity against Plasmodium berghei ANKA infected in mouse assessed as reduction in parasitaemia at 20 mg/kg/day, ip administered for 4 days; format: functional; set-up: scale not given: the % may be the effect or the level left; conditions: time 4 day
HeLa = assay: Antiproliferative activity against human HeLa cells; format: functional, cell-based
DLD-1 = assay: Antiproliferative activity against human DLD-1 cells; format: functional, cell-based
Plasmodium falciparum [6] = assay: Antimalarial activity against Plasmodium falciparum 3D7; format: functional, organism-based
Plasmodium falciparum [7] = assay: Antimalarial activity against multidrug resistant Plasmodium falciparum Dd2; format: functional, organism-based
Plasmodium falciparum [8] = assay: Antimalarial activity against multidrug resistant Plasmodium falciparum K1; format: functional, organism-based
HCT-116 = assay: Cytotoxicity against human HCT-116 cells; format: functional, cell-based
RPMI-8226 [9] = assay: Cytotoxicity against human RPMI-8226 cells; format: functional, cell-based
RPMI-8226 [10] = assay: Induction of apoptosis in human RPMI-8226 cells assessed as fold increase in cytochrome c level; format: functional
RPMI-8226 [11] = assay: Induction of apoptosis in human RPMI-8226 cells assessed as fold increase in caspase-3 level; format: functional
Hemozoin = assay: Inhibition of beta-hematin formation relative to control; conditions: concentration not given here
PC-3 = assay: Antiproliferative activity against human PC-3 cells; format: functional, cell-based
Plasmodium falciparum [12] = assay: Antimalarial activity against CQ-sensitive Plasmodium falciparum D6; format: functional, organism-based
A549 = assay: Cytotoxicity against human A549 cells; format: functional, cell-based
Plasmodium falciparum [13] = assay: Antimalarial activity against CQ-sensitive Plasmodium falciparum 3D7; format: functional, organism-based
[14] = Cytotoxicity against african green monkey Vero cells; format: toxicity, cell-based; conditions: African green monkey (Chlorocebus sabaeus)
[15] = Selectivity index, ratio of IC50 for African green monkey Vero cells to IC50 for CQ sensitive Plasmodium falciparum 3D7; format: toxicity; conditions: read-out: Ratio IC50
Plasmodium falciparum [16] = assay: Antimalarial activity against CQ-resistant Plasmodium falciparum RKL-9; format: functional, organism-based
[17] = Inhibition of PI3K (unknown origin); set-up: species or system Homo sapiens
Hep 3B2 = assay: Cytotoxicity against human Hep3B cells assessed as relative value at 15 uM after 48 hrs by MTS method; format: functional

SMILES: COc1cc2c(Oc3ccc(NS(=O)(=O)c4c(F)cccc4F)cc3F)ccnc2cc1OCCCN1CCN(C)CC1
IC50 [1]: 27 nM

SMILES: COc1ccc2ccc(F)c(CC(=O)N/N=C/c3cc(OC)c(OC)c(OC)c3)c2n1
IC50 (MCF7): 2070 nM | IC50 (G-361): 2070 nM

SMILES: Clc1ccc2c(N3CC(CN4CCCC4)N=N3)ccnc2c1 (configuration not stated)
IC50 (Plasmodium falciparum [2]): 206 nM

SMILES: COc1cc2c(Oc3ccc(NS(=O)(=O)c4ccccc4OC(F)(F)F)cc3F)ccnc2cc1OCCCN1CCN(C)CC1
IC50 [1]: 27 nM

SMILES: COc1cc(/C=C/C(=O)c2cccc(Nc3ccnc4cc(Cl)ccc34)c2)cc(OC)c1OC
Time (Plasmodium berghei [4]): 24.6 days | Activity (Plasmodium berghei [5]): 1.4%

SMILES: C#CCCCN(CCNc1ccnc2cc(Cl)ccc12)C(=O)CCC(=O)O[C@@H]1O[C@@H]2O[C@@]3(C)CC[C@H]4[C@H](C)CCC([C@H]1C)[C@@]24OO3 (some centres not stated)
EC50 (Plasmodium falciparum [6]): 0.78 nM | EC50 (Plasmodium falciparum [7]): 0.78 nM | EC50 (Plasmodium falciparum [8]): 0.78 nM

SMILES: COc1nc2ccccc2cc1/C=[N+](\[O-])c1ccccc1
IC50 (HCT-116): 450 nM | IC50 (RPMI-8226 [9]): 450 nM | fold change (FC) (RPMI-8226 [10]): 4 | fold change (FC) (RPMI-8226 [11]): 12

SMILES: Clc1ccc2c(N3CC(CN4CCOCC4)N=N3)ccnc2c1 (configuration not stated)
IC50 (Plasmodium falciparum [2]): 206 nM

SMILES: C[C@@H]1CCC2[C@@H](C)[C@H](OC(=O)CCC(=O)NCCNc3ccnc4cc(Cl)ccc34)O[C@@H]3O[C@@]4(C)CC[C@@H]1[C@@]23OO4 (some centres not stated)
EC50 (Plasmodium falciparum [6]): 0.78 nM | EC50 (Plasmodium falciparum [7]): 0.78 nM | EC50 (Plasmodium falciparum [8]): 0.78 nM

SMILES: Clc1ccc2c(N3CCN(CCCN4CCN(c5ccnc6cc(Cl)ccc56)CC4)CC3)ccnc2c1 [PIPERAQUINE]
IC50 (Plasmodium falciparum [7]): 1.5 nM | IC50 (Plasmodium falciparum [12]): 0.7 nM

SMILES: C#CCCCC(C(=O)NCCOC(=O)CCC(=O)O[C@@H]1O[C@@H]2O[C@@]3(C)CC[C@H]4[C@H](C)CCC([C@H]1C)[C@@]24OO3)c1ccnc2cc(Cl)ccc12 (some centres not stated)
EC50 (Plasmodium falciparum [6]): 0.78 nM | EC50 (Plasmodium falciparum [7]): 0.78 nM | EC50 (Plasmodium falciparum [8]): 0.78 nM

SMILES: Cc1cc2nc(O)cc(C(=O)Nc3nc4ccccc4s3)c2cc1C
IC50 (PC-3): 48 nM | IC50 [3]: < 75 nM

SMILES: NC(=O)c1cnc2ccc(-c3cnc4ccccc4c3)cc2c1Nc1ccc(N2CCNCC2)c(C(F)(F)F)c1
GI50 (HCT-116): 2800 nM | GI50 (A549): 2800 nM

SMILES: O=C(Cn1cc(COc2ccc(Cl)cc2)nn1)NCCNc1ccnc2cc(Cl)ccc12
IC50 (Plasmodium falciparum [13]): 38.8 nM | IC50 [14]: > 5 µM | selectivity ratio [15]: 714 | IC50 (Plasmodium falciparum [16]): 75 nM

SMILES: COC[C@H]1OC(=O)c2coc3c2[C@@]1(C)C1=C(C3=O)[C@@H]2CCC(=O)[C@@]2(C)C[C@H]1OC(C)=O [WORTMANNIN]
IC50 [17]: 750 nM

SMILES: C[C@@H]1CC[C@H]2[C@@H](C)C(=O)O[C@@H]3O[C@@]4(C)CC[C@@H]1[C@]32OO4 [ARTEMISININ]
EC50 (Plasmodium falciparum [6]): 5.4 nM | EC50 (Plasmodium falciparum [7]): 5.4 nM | EC50 (Plasmodium falciparum [8]): 5.4 nM

SMILES: CSc1nc2ccccc2cc1/C=[N+](\[O-])c1ccccc1
IC50 (HCT-116): 450 nM | IC50 (RPMI-8226 [9]): 450 nM | fold change (FC) (RPMI-8226 [10]): 4 | fold change (FC) (RPMI-8226 [11]): 12

SMILES: O=S(=O)(Oc1cccc2cccnc12)c1ccc(CBr)cc1
fold change (FC) (Hep 3B2): 0.25

Results, then the compound that gave them:

IC50 [1]: 360 nM
SMILES: COc1cc2nccc(Oc3ccc(NC(=O)Nc4ccc(F)cc4F)c(F)c3)c2cc1OC

IC50 [3]: < 75 nM
SMILES: COc1cc2c(C(=O)Nc3nc4ccccc4s3)cc(O)nc2cc1Cl

IC50 (HeLa): 38 nM | IC50 (MCF7): 38 nM | IC50 (DLD-1): 38 nM
SMILES: COc1ccc2nc(Cl)c(C3CC(c4ccc(C)cc4)=NN3c3nc(C)c(/N=N/c4ccccc4)s3)cc2c1 (configuration not stated)

IC50 (HeLa): 38 nM | IC50 (MCF7): 38 nM | IC50 (DLD-1): 38 nM
SMILES: CNC(=O)c1sc(N2N=C(c3ccc(C)cc3)CC2c2cc3cc(OC)ccc3nc2Cl)nc1C (configuration not stated)

inhibition (Hemozoin): 61.3%
SMILES: COc1ccc(C(=O)/C=C/c2cc3ccccc3nc2Cl)cc1OC

IC50 (PC-3): 18 nM | IC50 [3]: < 75 nM
SMILES: Cc1cc2c(C(=O)Nc3nc4ccccc4s3)cc(O)nc2cc1Cl

IC50 (HeLa): 38 nM | IC50 (MCF7): 38 nM | IC50 (DLD-1): 38 nM
SMILES: COc1ccc2nc(Cl)c(C3CC(c4ccc(C)cc4)=NN3c3nc(-c4ccc(C)cc4)cs3)cc2c1 (configuration not stated)

IC50 (HeLa): 38 nM | IC50 (MCF7): 38 nM | IC50 (DLD-1): 38 nM
SMILES: COc1ccc2nc(Cl)c(C3CC(c4ccc(C)cc4)=NN3c3nc(-c4ccc(Cl)cc4)cs3)cc2c1 (configuration not stated)
